Measured values from US20120028045A1, “Processes for the Preparation of Indiplon and Intermediates Thereof” (Glenmark Generics LTD, priority 2009, published 2012).

Tests used:
Type in all cases: physicochemical
[1] = Particle size distribution (laser light scattering, Malvern Mastersizer 2000); settings: crystal particles of indiplon
Description: As used herein “Particle Size Distribution (P.S.D.)” means the cumulative volume size distribution of equivalent spherical diameters as determined by laser diffraction at 1 bar dispersive pressure in Sympatec Helos equipment.
“Mean particle size distribution, i.e., d (0.5)” correspondingly, means the median of said particle size distribution.
The particle size can be determined by such techniques as, for example, Malvern light scattering, a laser light scattering technique, etc., while herein, used Malvern Mastersizer 2000. It is noted the notation Dx means that X % of the particles have a diameter less than a specified diameter D. The particle sizes of the Indiplon can be obtained by, for example, any milling, grinding, micronizing or other particle size reduction method known in the art to bring the solid state indiplon any of the foregoing desired particle size range.

[2] = Specific surface area by BET (nitrogen absorption); settings: crystal particles of indiplon
Description: Specific surface area is defined in units of square meters per gram (m^2/g). It is usually measured by nitrogen absorption analysis. In this analysis, nitrogen is absorbed on the surface of the substance. The amount of the absorbed nitrogen (as measured during the absorption or the subsequent desorption process) is related to the surface area via a formula known as the B. ET. formula.

[3] = Bulk density as per USP method I

CC(=O)N(C)c1cccc(-c2ccnc3c(C(=O)c4cccs4)cnn23)c1 [indiplon, N-methyl-N-[3-[3-(thien-2-ylcarbonyl)pyrazolo[1,5-a]pyrimidin-7-yl]phenyl]acetamide]
Particle size Distribution d(0.1) [1]: d(0.1) 4.949 μm
Particle size Distribution d(0.9) [1]: d(0.9) 24.325 μm
Particle size Distribution d(0.5) ([1]; median particle size): d(0.5) 11.641 μm
Surface area by BET [2]: 1.41 m^2/gm
Bulk Density, after tapping (750) ([3]; after tapping (750), USP method I): After tapping (750) = 0.47 g/ml as per USP
Bulk Density, as such ([3]; as such (untapped)): As such = 0.24 g/ml
